# In ChEMBL document CHEMBL4138084, “Structure-activity relationship study of the tumour-targeting peptide A20FMDV2 via modification of Lys16, Leu13, and N- and/or C-terminal functionality” (Eur J Med Chem, 2017):
# What was measured:
# Integrin alpha-V/beta-6 [1] = molecular target: T1, Integrin alpha-V/beta-6 (Homo sapiens, UniProt P06756+P18564); assay: Binding affinity to alphav/beta6 integrin in human A375Pbeta6 cells assessed as drug internalization at 100 nM after 15 mins by flow cytometric analysis relative to biotinylated A20FMDV2; assay type: ADME, cell-based; conditions: 0.25 h, 0.1 µM
# Target sequence in this assay (P06756 31-889 limits assumed): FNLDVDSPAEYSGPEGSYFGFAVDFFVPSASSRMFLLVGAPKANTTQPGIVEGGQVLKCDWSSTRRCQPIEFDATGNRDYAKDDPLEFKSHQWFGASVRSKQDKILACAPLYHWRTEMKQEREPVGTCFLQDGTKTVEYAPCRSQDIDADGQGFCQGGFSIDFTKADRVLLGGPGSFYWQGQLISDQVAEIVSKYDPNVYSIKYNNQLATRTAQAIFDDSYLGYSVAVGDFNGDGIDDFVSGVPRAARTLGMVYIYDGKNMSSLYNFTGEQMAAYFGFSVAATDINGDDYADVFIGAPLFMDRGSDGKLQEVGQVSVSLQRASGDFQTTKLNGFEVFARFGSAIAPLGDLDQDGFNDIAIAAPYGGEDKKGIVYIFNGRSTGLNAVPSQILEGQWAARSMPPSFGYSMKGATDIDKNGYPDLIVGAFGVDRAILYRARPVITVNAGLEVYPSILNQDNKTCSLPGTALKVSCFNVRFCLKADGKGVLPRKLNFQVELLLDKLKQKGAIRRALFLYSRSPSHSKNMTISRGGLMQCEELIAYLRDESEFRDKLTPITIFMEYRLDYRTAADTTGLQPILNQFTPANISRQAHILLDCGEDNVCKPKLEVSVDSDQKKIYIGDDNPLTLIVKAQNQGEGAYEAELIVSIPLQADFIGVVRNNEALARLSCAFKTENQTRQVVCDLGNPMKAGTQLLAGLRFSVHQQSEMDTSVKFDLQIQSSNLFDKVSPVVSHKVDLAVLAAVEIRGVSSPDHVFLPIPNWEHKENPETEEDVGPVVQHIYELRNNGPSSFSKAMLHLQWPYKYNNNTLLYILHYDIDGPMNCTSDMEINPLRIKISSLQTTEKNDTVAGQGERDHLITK
# Target sequence in this assay (P06756 891-1048 limits assumed): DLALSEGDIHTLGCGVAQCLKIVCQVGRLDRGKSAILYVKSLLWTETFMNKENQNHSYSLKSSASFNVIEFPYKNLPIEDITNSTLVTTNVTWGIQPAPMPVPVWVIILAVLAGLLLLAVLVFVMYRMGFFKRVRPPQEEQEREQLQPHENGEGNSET
# Target sequence in this assay (P18564 22-788 limits assumed): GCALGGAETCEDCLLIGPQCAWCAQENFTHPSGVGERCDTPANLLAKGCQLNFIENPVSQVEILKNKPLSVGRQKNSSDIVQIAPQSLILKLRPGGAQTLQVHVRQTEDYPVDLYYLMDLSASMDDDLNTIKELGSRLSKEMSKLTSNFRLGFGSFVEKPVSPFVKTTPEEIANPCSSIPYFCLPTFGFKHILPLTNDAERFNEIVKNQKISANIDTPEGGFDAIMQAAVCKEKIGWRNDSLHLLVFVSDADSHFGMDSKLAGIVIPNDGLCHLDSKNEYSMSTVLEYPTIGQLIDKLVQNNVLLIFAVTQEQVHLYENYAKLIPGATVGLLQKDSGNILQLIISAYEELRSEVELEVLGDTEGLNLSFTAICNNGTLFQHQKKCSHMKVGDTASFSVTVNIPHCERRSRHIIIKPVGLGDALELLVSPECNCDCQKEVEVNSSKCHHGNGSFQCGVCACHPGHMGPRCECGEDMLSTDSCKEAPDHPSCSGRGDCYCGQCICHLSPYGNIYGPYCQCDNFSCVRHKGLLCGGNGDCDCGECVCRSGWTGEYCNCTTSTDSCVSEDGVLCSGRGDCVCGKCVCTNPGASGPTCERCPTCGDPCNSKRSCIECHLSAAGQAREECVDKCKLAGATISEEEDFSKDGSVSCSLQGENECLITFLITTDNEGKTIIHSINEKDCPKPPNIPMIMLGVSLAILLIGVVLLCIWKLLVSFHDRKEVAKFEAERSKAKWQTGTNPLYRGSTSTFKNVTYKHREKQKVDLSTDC
# [2] = Drug uptake in human A375PPuro cells at 1000 nM after 15 mins by flow cytometric analysis; assay type: ADME, cell-based; conditions: 0.25 h, 1 µM
# Integrin alpha-V/beta-6 [3] = molecular target: T1, Integrin alpha-V/beta-6; assay: Binding affinity to alphav/beta6 integrin in human A375Pbeta6 cells at 100 nM after 15 mins by flow cytometric analysis relative to biotinylated A20FMDV2; assay type: cell-based
fold change (FC) (Integrin alpha-V/beta-6 [1]),Drug uptake [2],fold change (FC) (Integrin alpha-V/beta-6 [3]),Compound
0.78,Not Active,1.11,CC(C)C[C@H](NC(=O)[C@H](CC(=O)O)NC(=O)CNC(=O)[C@H](CCCNC(=N)N)NC(=O)[C@H](CC(C)C)NC(=O)[C@H](CC(N)=O)NC(=O)[C@@H]1CCCN1C(=O)[C@@H](NC(=O)[C@H](CCCCNC(=O)CCCC[C@@H]1SC[C@@H]2NC(=O)N[C@@H]21)NC(=O)[C@@H](N)CC(N)=O)C(C)C)C(=O)N[C@@H](CCC(N)=O)C(=O)N[C@H](C(=O)N[C@@H](CC(C)C)C(=O)N[C@@H](C)C(=O)N[C@@H](CCC(N)=O)C(=O)N[C@H](CCCCN)C(=O)N[C@H](C(=O)N[C@@H](C)C(=O)N[C@@H](CCCNC(=N)N)C(=O)N[C@H](C(=O)O)[C@@H](C)O)C(C)C)C(C)C
0.52,Not Active,0.7,CCC(CC)[C@H](NC(=O)[C@@H](NC(=O)[C@H](CCC(N)=O)NC(=O)[C@H](CC(C)C)NC(=O)[C@H](CC(=O)O)NC(=O)CNC(=O)[C@H](CCCNC(=N)N)NC(=O)[C@H](CC(C)C)NC(=O)[C@H](CC(N)=O)NC(=O)[C@@H]1CCCN1C(=O)[C@@H](NC(=O)[C@H](CCCCNC(=O)CCCC[C@@H]1SC[C@@H]2NC(=O)N[C@@H]21)NC(=O)[C@@H](N)CC(N)=O)C(C)C)C(C)C)C(=O)N[C@@H](C)C(=O)N[C@@H](CCC(N)=O)C(=O)N[C@@H](CCCCN)C(=O)N[C@H](C(=O)N[C@@H](C)C(=O)N[C@@H](CCCNC(=N)N)C(=O)N[C@H](C(=O)O)[C@@H](C)O)C(C)C
1.03,Not Active,0.6,CC(C)C[C@H](NC(=O)[C@H](CC(=O)O)NC(=O)CNC(=O)[C@H](CCCNC(=N)N)NC(=O)[C@H](CC(C)C)NC(=O)[C@H](CC(N)=O)NC(=O)[C@@H]1CCCN1C(=O)[C@@H](NC(=O)[C@H](CCCCNC(=O)CCCC[C@@H]1SC[C@@H]2NC(=O)N[C@@H]21)NC(=O)[C@@H](N)CC(N)=O)C(C)C)C(=O)N[C@@H](CCC(N)=O)C(=O)N[C@H](C(=O)N[C@@H](CC(C)(C)C)C(=O)N[C@@H](C)C(=O)N[C@@H](CCC(N)=O)C(=O)N[C@@H](CCCCN)C(=O)N[C@H](C(=O)N[C@@H](C)C(=O)N[C@@H](CCCNC(=N)N)C(=O)N[C@H](C(=O)O)[C@@H](C)O)C(C)C)C(C)C

# Second part, the compound before the results:
Compound,fold change (FC) (Integrin alpha-V/beta-6 [1]),Drug uptake [2],fold change (FC) (Integrin alpha-V/beta-6 [3])
CC(C)C[C@H](NC(=O)[C@H](CC(=O)O)NC(=O)CNC(=O)[C@H](CCCNC(=N)N)NC(=O)[C@H](CC(C)C)NC(=O)[C@H](CC(N)=O)NC(=O)[C@@H]1CCCN1C(=O)[C@@H](NC(=O)[C@H](CCCCNC(=O)CCCC[C@@H]1SC[C@@H]2NC(=O)N[C@@H]21)NC(=O)[C@H](CC(N)=O)NC(=O)CNC(=O)CN(CCN(CCN(CC(=O)O)CC(=O)O)CC(=O)O)CC(=O)O)C(C)C)C(=O)N[C@@H](CCC(N)=O)C(=O)N[C@H](C(=O)N[C@@H](CC(C)C)C(=O)N[C@@H](C)C(=O)N[C@@H](CCC(N)=O)C(=O)N[C@@H](CCCCN)C(=O)N[C@H](C(=O)N[C@@H](C)C(=O)N[C@@H](CCCNC(=N)N)C(=O)N[C@H](C(=O)O)[C@@H](C)O)C(C)C)C(C)C,0.97,Not Active,1.28
CC(C)C[C@H](NC(=O)[C@H](CC(=O)O)NC(=O)CNC(=O)[C@H](CCCNC(=N)N)NC(=O)[C@H](CC(C)C)NC(=O)[C@H](CC(N)=O)NC(=O)[C@@H]1CCCN1C(=O)[C@@H](NC(=O)[C@H](CCCCNC(=O)CCCC[C@@H]1SC[C@@H]2NC(=O)N[C@@H]21)NC(=O)[C@@H](N)CC(N)=O)C(C)C)C(=O)N[C@@H](CCC(N)=O)C(=O)N[C@H](C(=O)NC(C)(C)C(=O)N[C@@H](C)C(=O)N[C@@H](CCC(N)=O)C(=O)N[C@@H](CCCCN)C(=O)N[C@H](C(=O)N[C@@H](C)C(=O)N[C@@H](CCCNC(=N)N)C(=O)N[C@H](C(=O)O)[C@@H](C)O)C(C)C)C(C)C,1.11,Not Active,1.07
